The source of these data is patent publication US12018001B2, “Pyrimidine cyclohexenyl glucocorticoid receptor modulators” (priority 2018, dated 2024).

A word on the Ki: it is the dissociation constant of the complex between target and ligand, obtained from inhibition or displacement.

The structures appear in SMILES notation.

In this assay the target is T1, glucocorticoid receptor (Homo sapiens, UniProt P04150).
T1 construct: host or cells: HepG2
T1 sequence (P04150 1-777): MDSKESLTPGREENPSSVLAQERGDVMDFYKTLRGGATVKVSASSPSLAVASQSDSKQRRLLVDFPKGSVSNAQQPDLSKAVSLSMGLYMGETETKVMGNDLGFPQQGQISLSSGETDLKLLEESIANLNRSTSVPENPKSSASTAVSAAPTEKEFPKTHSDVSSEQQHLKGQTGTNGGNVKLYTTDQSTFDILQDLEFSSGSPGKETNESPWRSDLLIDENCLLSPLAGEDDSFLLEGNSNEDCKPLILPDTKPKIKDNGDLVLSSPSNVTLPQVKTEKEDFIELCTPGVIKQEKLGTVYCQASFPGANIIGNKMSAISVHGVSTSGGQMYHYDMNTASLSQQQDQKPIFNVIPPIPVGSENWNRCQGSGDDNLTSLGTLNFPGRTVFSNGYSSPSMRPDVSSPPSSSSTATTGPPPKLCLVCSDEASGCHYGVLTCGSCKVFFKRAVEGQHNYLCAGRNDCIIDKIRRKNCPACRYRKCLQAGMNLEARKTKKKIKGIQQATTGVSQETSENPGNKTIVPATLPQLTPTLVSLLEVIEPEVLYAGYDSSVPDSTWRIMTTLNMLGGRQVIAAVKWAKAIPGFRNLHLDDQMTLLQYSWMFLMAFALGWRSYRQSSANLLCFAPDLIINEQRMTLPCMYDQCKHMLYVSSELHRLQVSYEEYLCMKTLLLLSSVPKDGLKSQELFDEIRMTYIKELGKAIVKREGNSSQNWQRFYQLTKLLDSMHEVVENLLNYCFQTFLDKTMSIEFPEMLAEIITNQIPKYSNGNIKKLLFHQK
Put plainly: Hep G2 TAT assay: induction of TAT by dexamethasone in HepG2 cells. Type of assay: cell-based. The procedure:
Glucocorticoid mediated activation of TAT occurs by transactivation of glucocorticoid response elements in the TAT promoter by glucocorticoid receptor-agonist complex.
TAT activity was measured as outlined in the literature by A. Ali et al., J. Med. Chem., 2004, 47, 2441-2452.
HepG2 cells were cultured using MEME media supplemented with 10% (v/v) foetal bovine serum; 2 mM L-glutamine and 1% (v/v) NEAA at 37° C., 5%/95% (v/v) CO2/air. The HepG2 cells were counted and adjusted to yield a density of 0.125×10^6 cells/ml in RPMI 1640 without phenol red, 10% (v/v) charcoal stripped FBS, 2 mM L-glutamine and seeded at 25,000 cells/well in 200 μl into 96 well, sterile, tissue culture micro titre plates, and incubated at 37° C., 5% CO2 for 24 hours
Growth media was removed and replaced with assay media {RPMI 1640 without phenol red, 2 mM L-glutamine+10 μM forskolin}. […] Compounds were serially half log diluted in 100% (v/v) dimethylsulphoxide from a 10 mM stock.
HepG2 cells were then lysed with 30 μl of cell lysis buffer containing a protease inhibitor cocktail for 15 minutes at 4° C. 155 μl of substrate mixture was then added containing 5.4 mM Tyrosine sodium salt, 10.8 mM alpha ketoglutarate and 0.06 mM pyridoxal 5′ phosphate in 0.1 M potassium phosphate buffer (pH 7.4). After 2 hours incubation at 37° C. the reaction was terminated by the addition of 15 μl of 10 M aqueous potassium hydroxide solution, and the plates incubated for a further 30 minutes at 37° C. The TAT activity product was measured by absorbance at λ 340 nm.
[compound] and fitting the data to a 4 parameter logistic equation.
Compound `N#Cc1ccc(C2=CC[C@H](c3[nH]c(=O)[nH]c(=O)c3Cc3ccccc3)CC2)c(Cl)c1` (single isomer, unassigned) [Example 39] gave a Ki of 69 nM.
The value for `N#Cc1ccc(C2=CC[C@@H](c3[nH]c(=O)[nH]c(=O)c3Cc3ccccc3)CC2)c(Cl)c1` (single isomer, unassigned) [Example 40] was 42 nM; that for `O=c1[nH]c([C@H]2CC=C(c3ccc(Cl)cc3C(F)(F)F)CC2)c(Cc2ccccc2)c(=O)[nH]1` (single isomer, unassigned) [Example 109] was 30 nM.
To `O=c1[nH]c([C@@H]2CC=C(c3ccc(Cl)cc3C(F)(F)F)CC2)c(Cc2ccccc2)c(=O)[nH]1` (single isomer, unassigned) [Example 110] belongs 38 nM; to `O=c1[nH]c(C2CC=C(c3cccc(Cl)c3Cl)CC2)c(Cc2ccccc2)c(=O)[nH]1` (stereo not drawn) [Example 2], 99 nM.
The value for `O=c1[nH]c(C2CC=C(c3ccc(F)cc3)CC2)c(Cc2ccccc2)c(=O)[nH]1` (stereo not drawn) [Example 3] was 460 nM; that for `O=c1[nH]c(C2CC=C(c3cncs3)CC2)c(Cc2ccccc2)c(=O)[nH]1` (stereo not drawn) [Example 4] was 1300 nM; that for `N#Cc1ccccc1C1=CCC(c2[nH]c(=O)[nH]c(=O)c2Cc2ccccc2)CC1` (stereo not drawn) [Example 5] was 120 nM.
On to `O=c1[nH]c(C2CC=C(c3ccc(Cl)cc3Cl)CC2)c(Cc2ccccc2)c(=O)[nH]1` (stereo not drawn) [Example 6], for which the Ki came to 65 nM.
`COc1cc(Cl)ccc1C1=CCC(c2[nH]c(=O)[nH]c(=O)c2Cc2ccccc2)CC1` (stereo not drawn) [Example 7] showed a Ki of 38 nM.
As to `O=c1[nH]c(C2CC=C(c3ccccc3Cl)CC2)c(Cc2ccccc2)c(=O)[nH]1` (stereo not drawn) [Example 8], the affinity, expressed as Ki, was 52 nM.
The value for `O=c1[nH]c(C2CC=C(c3ccc(F)cc3Cl)CC2)c(Cc2ccccc2)c(=O)[nH]1` (stereo not drawn) [Example 9] was 26 nM; that for `O=c1[nH]c(C2CC=C(c3ccccc3C(F)(F)F)CC2)c(Cc2ccccc2)c(=O)[nH]1` (stereo not drawn) [Example 11] was 14 nM; that for `COc1ccc(F)cc1C1=CCC(c2[nH]c(=O)[nH]c(=O)c2Cc2ccccc2)CC1` (stereo not drawn) [Example 12] was 350 nM.
To `Cc1ccccc1C1=CCC(c2[nH]c(=O)[nH]c(=O)c2Cc2ccccc2)CC1` (stereo not drawn) [Example 13] belongs 83 nM; to `CS(=O)(=O)c1ccccc1C1=CCC(c2[nH]c(=O)[nH]c(=O)c2Cc2ccccc2)CC1` (stereo not drawn) [Example 15], 520 nM.
`O=c1[nH]c(C2CC=C(c3cccc(Cl)c3)CC2)c(Cc2ccccc2)c(=O)[nH]1` (stereo not drawn) [Example 16] showed a Ki of 640 nM.
The value for `COc1ccc(C2=CCC(c3[nH]c(=O)[nH]c(=O)c3Cc3ccccc3)CC2)c(C(F)(F)F)c1` (stereo not drawn) [Example 17] was 280 nM; that for `COc1ccccc1C1=CCC(c2[nH]c(=O)[nH]c(=O)c2Cc2ccccc2)CC1` (stereo not drawn) [Example 18] was 260 nM.
The value for `O=c1[nH]c(C2CC=C(c3c(Cl)cccc3Cl)CC2)c(Cc2ccccc2)c(=O)[nH]1` (stereo not drawn) [Example 19] was 32 nM.
To `Cc1ccc(F)cc1C1=CCC(c2[nH]c(=O)[nH]c(=O)c2Cc2ccccc2)CC1` (stereo not drawn) [Example 21] belongs 270 nM; to `Cc1ccc(CO)cc1C1=CCC(c2[nH]c(=O)[nH]c(=O)c2Cc2ccccc2)CC1` (stereo not drawn) [Example 22], 330 nM.
`COc1ccc(C#N)cc1C1=CCC(c2[nH]c(=O)[nH]c(=O)c2Cc2ccccc2)CC1` (stereo not drawn) [Example 23] showed a Ki of 330 nM.
In turn, `Cc1c(F)cccc1C1=CCC(c2[nH]c(=O)[nH]c(=O)c2Cc2ccccc2)CC1` (stereo not drawn) [Example 24] showed a Ki of 33 nM.
To `Cc1ncccc1C1=CCC(c2[nH]c(=O)[nH]c(=O)c2Cc2ccccc2)CC1` (stereo not drawn) [Example 25] belongs 100 nM; to `O=c1[nH]c(C2CC=C(c3ccccc3OC(F)(F)F)CC2)c(Cc2ccccc2)c(=O)[nH]1` (stereo not drawn) [Example 26], 50 nM; to `N#Cc1ccc(Cl)c(C2=CCC(c3[nH]c(=O)[nH]c(=O)c3Cc3ccccc3)CC2)c1` (stereo not drawn) [Example 27], 210 nM.
